Converted amounts (≈) assume the structure as drawn.
Tests used:
Type in all cases: cell-based
[1] = system: Staphylococcus aureus CMX 553; assay: in vitro antibacterial MIC, agar dilution; settings: organism code FF; 35-37° C., 20 to 24 hours; unit assumed
Protocol: (§1) Representative compounds of the present invention were assayed in vitro for antibacterial activity as follows: Twelve petri dishes containing successive aqueous dilutions of the test compound mixed with 10 mL of sterilized Brain Heart Infusion (BHI) agar (Difco 0418-01-5) were prepared. Each plate was inoculated with 1:100 (or 1:10 for slow-growing strains, such as Micrococcus and Streptococcus) dilutions of up to 32 different microorganisms, using a Steers replicator block. […] In addition, a control plate, using BHI agar containing no test compound, was prepared and incubated at the beginning and end of each test.
(§2) An additional plate containing a compound having known susceptibility patterns for the organisms being tested and belonging to the same antibiotic class as the test compound was also prepared and incubated as a further control, as well as to provide test-to-test comparability.
(§3) After incubation, each plate was visually inspected. The minimum inhibitory concentration (MIC) was defined as the lowest concentration of drug yielding no growth, a slight haze, or sparsely isolated colonies on the inoculum spot as compared to the growth control.

[2] = system: Streptococcus Pheumoniae 5649; assay: in vitro antibacterial MIC, agar dilution; settings: organism code ZZA; 35-37° C., 20 to 24 hours; unit assumed
Protocol: as §1, §2, §3

Escherichia coli SS = assay: in vitro antibacterial MIC, agar dilution; settings: organism code RR; 35-37° C., 20 to 24 hours; unit assumed
Protocol: as §1, §2, §3

[3] = system: Micrococcus luteus ATCC 4698; assay: in vitro antibacterial MIC, agar dilution; settings: organism code PP; 35-37° C., 20 to 24 hours; unit assumed
Protocol: as §1, §2, §3

[4] = system: Enterococcus faecium ATCC 8Q43; assay: in vitro antibacterial MIC, agar dilution; settings: organism code II; 35-37° C., 20 to 24 hours; unit assumed
Protocol: as §1, §2, §3

[5] = system: Haemophilis Influenzae DILL AMP R; assay: in vitro antibacterial MIC, agar dilution; settings: organism code WW; 35-37° C., 20 to 24 hours; unit assumed
Protocol: as §1, §2, §3

[6] = system: Streptococcus Pheumoniae 5979; assay: in vitro antibacterial MIC, agar dilution; settings: organism code ZZ; 35-37° C., 20 to 24 hours; unit assumed
Protocol: as §1, §2, §3

[7] = system: Nocardia Asteroides ATCC9970; assay: in vitro antibacterial MIC, agar dilution; settings: organism code VV; 35-37° C., 20 to 24 hours; unit assumed
Protocol: as §1, §2, §3

[8] = system: Staphylococcus epidermidis 3519; assay: in vitro antibacterial MIC, agar dilution; settings: organism code HH; 35-37° C., 20 to 24 hours; unit assumed
Protocol: as §1, §2, §3

[9] = system: Streptococcus pyogenes PIU 2548; assay: in vitro antibacterial MIC, agar dilution; settings: organism code NN; 35-37° C., 20 to 24 hours; unit assumed
Protocol: as §1, §2, §3

[10] = system: Streptococcus pyogenes EES61; assay: in vitro antibacterial MIC, agar dilution; settings: organism code LL; 35-37° C., 20 to 24 hours; unit assumed
Protocol: as §1, §2, §3

[11] = system: Staphylococcus aureus CMX 642A; assay: in vitro antibacterial MIC, agar dilution; settings: organism code DD; 35-37° C., 20 to 24 hours; unit assumed
Protocol: as §1, §2, §3

[12] = system: Staphylococcus aureus ATCC 6538P; assay: in vitro antibacterial MIC, agar dilution (BHI agar, Steers replicator); settings: organism code AA; 35-37° C., 20 to 24 hours; unit assumed
Protocol: as §1, §2, §3

[13] = system: Mycobacterium smegmatis ATCC 114; assay: in vitro antibacterial MIC, agar dilution; settings: organism code UU; 35-37° C., 20 to 24 hours; unit assumed
Protocol: as §1, §2, §3

[14] = system: Micrococcus luteus ATCC 9341; assay: in vitro antibacterial MIC, agar dilution; settings: organism code OO; 35-37° C., 20 to 24 hours; unit assumed
Protocol: as §1, §2, §3

[15] = system: Staphylococcus aureus A5177; assay: in vitro antibacterial MIC, agar dilution; settings: organism code BB; 35-37° C., 20 to 24 hours; unit assumed
Protocol: as §1, §2, §3

[16] = system: Streptococcus agalactiae CMX 508; assay: in vitro antibacterial MIC, agar dilution; settings: organism code KK; 35-37° C., 20 to 24 hours; unit assumed
Protocol: as §1, §2, §3

[17] = system: Streptococcus bovis A-5169; assay: in vitro antibacterial MIC, agar dilution; settings: organism code JJ; 35-37° C., 20 to 24 hours; unit assumed
Protocol: as §1, §2, §3

[18] = system: Staphylococcus aureus NCTC10649M; assay: in vitro antibacterial MIC, agar dilution; settings: organism code EE; 35-37° C., 20 to 24 hours; unit assumed
Protocol: as §1, §2, §3

[19] = system: Streptococcus pyogenes 930; assay: in vitro antibacterial MIC, agar dilution; settings: organism code MM; 35-37° C., 20 to 24 hours; unit assumed
Protocol: as §1, §2, §3

| SMILES | MIC [1] [µg/mL] | MIC [2] [µg/mL] | MIC (Escherichia coli SS) [µg/mL] | MIC [3] [µg/mL] | MIC [4] [µg/mL] | MIC [5] [µg/mL] | MIC [6] [µg/mL] | MIC [7] [µg/mL] | MIC [8] [µg/mL] | MIC [9] [µg/mL] | MIC [10] [µg/mL] | MIC [11] [µg/mL] | MIC [12] [µg/mL] | MIC [13] [µg/mL] | MIC [14] [µg/mL] | MIC [15] [µg/mL] | MIC [16] [µg/mL] | MIC [17] [µg/mL] | MIC [18] [µg/mL] | MIC [19] [µg/mL] |
| --- | --- | --- | --- | --- | --- | --- | --- | --- | --- | --- | --- | --- | --- | --- | --- | --- | --- | --- | --- | --- |
| CC[C@H]1OC(=O)[C@H](C)[C@@H](O[C@H]2C[C@@](C)(OC)[C@@H](O)[C@H](C)O2)[C@H](C)[C@@H](O[C@@H]2O[C@H](C)C[C@H](N(C)C)[C@H]2O)[C@@]2(C)C[C@@H](C)C(=O)[C@H](C)[C@H]3N(CCNC(=O)c4ccccc4C=CCO2)C(=O)O[C@]13C [Example 4] | 1.56 (≈ 1.65 µM) | 16 (≈ 16.9 µM) | 6.2 (≈ 6.57 µM) | 1.56 (≈ 1.65 µM) | 0.39 (≈ 0.413 µM) | 16 (≈ 16.9 µM) | > 128 | 0.2 (≈ 0.212 µM) | 1.56 (≈ 1.65 µM) | 12.5 (≈ 13.2 µM) | 0.39 (≈ 0.413 µM) | 1.56 (≈ 1.65 µM) | 1.56 (≈ 1.65 µM) | – | – | – | – | – | – | – |
| CC[C@H]1OC(=O)[C@H](C)[C@@H](O[C@H]2C[C@@](C)(OC)[C@@H](O)[C@H](C)O2)[C@H](C)[C@@H](O[C@@H]2O[C@H](C)C[C@H](N(C)C)[C@H]2O)[C@@]2(C)C[C@@H](C)C(=O)[C@H](C)[C@H]3N(CCNC(=O)Cc4ccccc4C=CCO2)C(=O)O[C@]13C [Example 6] | 0.78 (≈ 0.814 µM) | 16 (≈ 16.7 µM) | 3.1 (≈ 3.24 µM) | 0.78 (≈ 0.814 µM) | 0.39 (≈ 0.407 µM) | 8 (≈ 8.35 µM) | > 128 | 0.39 (≈ 0.407 µM) | 0.78 (≈ 0.814 µM) | 12.5 (≈ 13 µM) | 0.2 (≈ 0.209 µM) | 1.56 (≈ 1.63 µM) | 0.78 (≈ 0.814 µM) | 0.39 (≈ 0.407 µM) | 0.1 (≈ 0.104 µM) | 12.5 (≈ 13 µM) | 0.1 (≈ 0.104 µM) | 0.1 (≈ 0.104 µM) | 1.56 (≈ 1.63 µM) | – |
| CC[C@H]1OC(=O)[C@H](C)[C@@H](O[C@H]2C[C@@](C)(OC)[C@@H](OC(C)=O)[C@H](C)O2)[C@H](C)[C@@H](O[C@@H]2O[C@H](C)C[C@H](N(C)C)[C@H]2O)[C@@]2(C)C[C@@H](C)C(=O)[C@H](C)[C@H]3N(CCNCc4cccc(c4)C=CCO2)C(=O)O[C@]13C [Example 10] | 6.2 (≈ 6.38 µM) | 8 (≈ 8.23 µM) | 6.2 (≈ 6.38 µM) | 1.56 (≈ 1.6 µM) | 0.78 (≈ 0.802 µM) | – | – | 1.56 (≈ 1.6 µM) | 6.2 (≈ 6.38 µM) | 6.2 (≈ 6.38 µM) | 0.78 (≈ 0.802 µM) | 6.2 (≈ 6.38 µM) | 6.2 (≈ 6.38 µM) | 0.39 (≈ 0.401 µM) | 0.39 (≈ 0.401 µM) | 25 (≈ 25.7 µM) | 0.39 (≈ 0.401 µM) | 0.39 (≈ 0.401 µM) | 6.2 (≈ 6.38 µM) | 25 (≈ 25.7 µM) |
| CC[C@H]1OC(=O)[C@H](C)[C@@H](O[C@H]2C[C@@](C)(OC)[C@@H](O)[C@H](C)O2)[C@H](C)[C@@H](O[C@@H]2O[C@H](C)C[C@H](N(C)C)[C@H]2O)[C@@]2(C)C[C@@H](C)C(=O)[C@H](C)[C@H]3N(CCNCc4cccc(c4)C=CCO2)C(=O)O[C@]13C [Example 11] | – | 32 (≈ 34.4 µM) | 6.2 (≈ 6.67 µM) | – | 0.2 (≈ 0.215 µM) | 32 (≈ 34.4 µM) | > 128 | – | – | – | – | – | – | – | – | – | – | – | – | – |
| CC[C@H]1OC(=O)[C@H](C)C(=O)[C@H](C)[C@@H](O[C@@H]2O[C@H](C)C[C@H](N(C)C)[C@H]2O)[C@@]2(C)C[C@@H](C)C(=O)[C@H](C)[C@H]3N(CCOCc4ccccc4C=CCO2)C(=O)O[C@]13C [Example 12] | 0.78 (≈ 1.01 µM) | 1 (≈ 1.3 µM) | 1.56 (≈ 2.02 µM) | – | 0.1 (≈ 0.13 µM) | 16 (≈ 20.8 µM) | 128 (≈ 166 µM) | 0.78 (≈ 1.01 µM) | 0.78 (≈ 1.01 µM) | – | – | 0.78 (≈ 1.01 µM) | 0.78 (≈ 1.01 µM) | 0.78 (≈ 1.01 µM) | – | 0.78 (≈ 1.01 µM) | – | – | 0.78 (≈ 1.01 µM) | 50 (≈ 64.9 µM) |
